In patent US7385051B2, “Fluorescent N2,N3-etheno-purine (2′-deoxy) riboside derivatives and uses thereof” (Bar-llan University, priority 2005, dated 2008):
“Also recorded” adds a separate entry of the source.

What was measured:
rat brain P2Y1-receptor = molecular target: T1, rat brain P2Y1-receptor (Rattus norvegicus, UniProt P49651); assay: Agonist-induced Ca2+ release in HEK 293 cells stably transfected with P2Y1-receptor; type: cell-based; conditions: HEK 293 cells with rat brain P2Y1-receptor
T1 construct: expressed in transfected cells
Excerpt: To examine the efficacy of analogues 30a,d in a functional assay, we tested them by the agonist-induced Ca^2+ release in HEK 293 cells stably transfected with rat brain P2Y1-receptor (FIG. 6) (Voehringer et al., 2000). […] However, a benzyl substitution at N^6 of 30a, as in analogue 30d, reduced the ligand's potency. […] EC50 value in the range of 10^−6 M.

NTPDase2 [1] = molecular target: T2, NTPDase2 (Homo sapiens, UniProt Q9Y5L3); assay: Hydrolysis as substrates of NTPDase2; type: biochemical; conditions: substrate at 200 μM
T2 sequence (Q9Y5L3 1-495): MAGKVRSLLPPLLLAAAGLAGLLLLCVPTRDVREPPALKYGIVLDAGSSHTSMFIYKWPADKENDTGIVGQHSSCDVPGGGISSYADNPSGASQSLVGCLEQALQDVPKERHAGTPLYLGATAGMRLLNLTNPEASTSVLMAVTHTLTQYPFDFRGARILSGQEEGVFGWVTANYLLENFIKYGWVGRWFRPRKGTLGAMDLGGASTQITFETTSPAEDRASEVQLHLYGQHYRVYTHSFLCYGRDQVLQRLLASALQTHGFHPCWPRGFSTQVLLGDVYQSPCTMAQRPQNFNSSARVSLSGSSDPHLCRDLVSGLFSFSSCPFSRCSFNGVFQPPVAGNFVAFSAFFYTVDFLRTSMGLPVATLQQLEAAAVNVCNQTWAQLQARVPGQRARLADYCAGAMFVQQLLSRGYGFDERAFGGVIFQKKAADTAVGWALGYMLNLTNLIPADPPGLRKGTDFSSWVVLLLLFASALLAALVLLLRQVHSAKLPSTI
Experimental: (§1) For evaluation of the probes as substrates/inhibitors of NTPDase1 and 2, the analogues 30a-f were evaluated as either substrates or inhibitors of NTPDase1 and 2. We tested ATP and analogues 30 as substrates of NTPDases 1 and 2 at 100 μM for NTPDase1 and 200 μM for NTPDase2. All analogues were hydrolysed by NTPDases 1 and 2. NTPDase2 hydrolysed analogues 30 better than NTPDase1. When compared to ATP, the rate of hydrolysis of all analogues was lower for NTPDase1 and mostly similar for NTPDase2 (FIGS. 7A-7B).

NTPDase2 [2] = molecular target: T2, NTPDase2; assay: Fluorescence spectra of the nucleotide with and without NTPDase2; type: biochemical; parameters: made in house; host or cells: COS-7 cells (transfected; lysate used as enzyme); conditions: 200 μM nucleotide, excitation at 290 nm
Excerpt: Next, we tested whether N^2,N3-ε-A is suitable for probing ectonucleotidases. […] For this purpose, we measured the fluorescence spectra of 30a and its monophosphate homologue with and without human NTPDase2. We observed that the fluorescence intensity of the nucleotide decreased by ca. ⅓ upon the addition of the enzyme (not shown). This observation is consistent with the lower dielectric constant (polarity) of the protein as compared to that of the aqueous solution. Fluorescence intensity of the bound nucleotide, although lowered, still enables the application of this nucleotide as a fluorescent probe.
For the fluorescence studies of 30a-NTPDase2 complex, emission spectra of 30a and its monophosphate homologue, 30a′, were measured in the presence of human NTPDase2 using an Aminco-Bowman series 2 Luminescence Spectrometer. Measurement conditions included: 740-780 V sensitivity, 37° C. and excitation at 290 nm. The concentration of the samples was of the order of 2×10^−4 M in the NTPDase incubation mixture. Measurements of the emission spectra were performed in 1.5 ml of 200 μM 30a and 30a′, without enzyme. Enzyme was added (3.6 μg of transfected COS-7 cells lysate), then, emission spectra were measured at 5 min intervals. […]

NTPDase1 = molecular target: T3, NTPDase1 (Homo sapiens, UniProt P49961); assay: Hydrolysis as substrates of NTPDase1; type: biochemical; conditions: substrate at 100 μM
T3 sequence (P49961 1-510): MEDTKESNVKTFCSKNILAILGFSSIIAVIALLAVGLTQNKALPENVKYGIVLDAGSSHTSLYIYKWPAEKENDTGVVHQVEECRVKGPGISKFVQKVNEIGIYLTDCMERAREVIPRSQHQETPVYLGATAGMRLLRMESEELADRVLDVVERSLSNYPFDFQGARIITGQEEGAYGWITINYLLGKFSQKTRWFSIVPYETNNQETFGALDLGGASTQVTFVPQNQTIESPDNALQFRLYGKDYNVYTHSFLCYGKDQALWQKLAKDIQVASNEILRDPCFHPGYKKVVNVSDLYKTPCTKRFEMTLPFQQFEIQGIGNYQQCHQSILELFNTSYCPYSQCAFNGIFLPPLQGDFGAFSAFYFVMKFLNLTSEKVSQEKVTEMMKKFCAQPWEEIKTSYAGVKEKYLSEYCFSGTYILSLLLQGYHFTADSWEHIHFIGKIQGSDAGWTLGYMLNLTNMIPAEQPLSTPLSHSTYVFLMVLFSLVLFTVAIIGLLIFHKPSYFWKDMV
Experimental: as §1

T1 sequence (P49651 whole entry): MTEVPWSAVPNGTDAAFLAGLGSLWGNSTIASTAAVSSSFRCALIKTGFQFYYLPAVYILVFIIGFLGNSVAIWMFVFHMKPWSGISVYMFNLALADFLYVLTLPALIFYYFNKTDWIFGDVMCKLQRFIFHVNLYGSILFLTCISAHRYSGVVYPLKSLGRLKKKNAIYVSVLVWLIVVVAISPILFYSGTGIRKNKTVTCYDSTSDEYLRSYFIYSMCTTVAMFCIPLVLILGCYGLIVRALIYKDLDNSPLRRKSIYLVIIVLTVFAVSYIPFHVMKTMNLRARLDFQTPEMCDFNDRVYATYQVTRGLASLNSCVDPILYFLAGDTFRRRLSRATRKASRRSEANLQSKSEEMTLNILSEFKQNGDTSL

Row | EC50 (rat brain P2Y1-receptor; Ca^2+ release) [nM] | Shift of maximum emission upon the addition of the enzyme (NTPDase2 [2]; human NTPDase2, 37° C.) | Rate of hydrolysis by NTPDase1 compared to ATP (NTPDase1) | Compound | Potency at P2Y1-R compared to ATP / 30a (rat brain P2Y1-receptor) | Rate of hydrolysis by NTPDase2 compared to ATP (NTPDase2 [1]) | Decrease of fluorescence intensity upon the addition of the enzyme (NTPDase2 [2]; human NTPDase2 (3.6 μg COS-7 lysate), 37° C.)
1 | ~100 | does not shift | – | Nc1nc2nccn2c2c1ncn2C1OC(COP(=O)(O)OP(=O)(O)OP(=O)(O)O)C(O)C1O (stereo not shown) [Compound 30a, N^2,N3-ethenoadenosine-5′-triphosphate] | almost equipotent with ATP; also recorded: almost equipotent to ATP | almost equipotent to ATP | ca. ⅓; also recorded: lower fluorescence intensity
2 | – | – | less efficiently than ATP | O=P(O)(O)OP(=O)(O)OP(=O)(O)OCC1OC(n2cnc3c(N(Cc4ccccc4)Cc4ccccc4)nc4nccn4c32)C(O)C1O (stereo not shown) [Compound 30e, N^6,N^6-Dibenzyl-N^2,N3-ethenoadenosine-5′-triphosphate] | – | less efficiently than ATP; also recorded: significant reduction of the affinities | –
